# Source: PMC7156458, “Synthetic biology based construction of biological activity-related library of fungal decalin-containing diterpenoid pyrones” (Nature Communications, 2020)
# Biological target: Aβ42 (Homo sapiens, UniProt P05067)
# Assay: Th-T (thioflavin-T) assay of Aβ42 aggregation
# Format: biochemical
# Details: for Th-T assay plate reading, mean of three wells (Supplementary Fig. 47): source data, Ab alone and No Ab as controls
# Chain of Aβ42 (P05067 672-713): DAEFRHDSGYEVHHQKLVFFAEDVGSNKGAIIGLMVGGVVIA
compound,measurement,setting,value
C=C1CCC2C(C)(CC(=O)C=C(C)C)C(O)CCC2(C)C1Cc1c(O)c(C)c(C)oc1=O (centres unmarked) [Compound 7],"Th-T fluorescence, mean of three wells","Aβ42 aggregation time course, reading M117",3.444
same,"Th-T fluorescence, mean of three wells","Aβ42 aggregation time course, reading M118",3.462
same,"Th-T fluorescence, mean of three wells","Aβ42 aggregation time course, reading M119",3.421
same,"Th-T fluorescence, mean of three wells","Aβ42 aggregation time course, reading M120",3.485
same,"Th-T fluorescence, mean of three wells","Aβ42 aggregation time course, reading M121",3.437
same,"Th-T fluorescence, mean of three wells","Aβ42 aggregation time course, reading M122",3.4838
same,"Th-T fluorescence, mean of three wells","Aβ42 aggregation time course, reading M123",3.463
same,"Th-T fluorescence, mean of three wells","Aβ42 aggregation time course, reading M124",3.451
same,"Th-T fluorescence, mean of three wells","Aβ42 aggregation time course, reading M125",3.454
same,"Th-T fluorescence, mean of three wells","Aβ42 aggregation time course, reading M126",3.465
same,"Th-T fluorescence, mean of three wells","Aβ42 aggregation time course, reading M127",3.446
same,"Th-T fluorescence, mean of three wells","Aβ42 aggregation time course, reading M128",3.459
same,"Th-T fluorescence, mean of three wells","Aβ42 aggregation time course, reading M129",3.461
same,"Th-T fluorescence, mean of three wells","Aβ42 aggregation time course, reading M130",3.435
same,"Th-T fluorescence, mean of three wells","Aβ42 aggregation time course, reading M131",3.434
same,"Th-T fluorescence, mean of three wells","Aβ42 aggregation time course, reading M132",3.446
same,"Th-T fluorescence, mean of three wells","Aβ42 aggregation time course, reading M133",3.459
same,"Th-T fluorescence, mean of three wells","Aβ42 aggregation time course, reading M134",3.427
same,"Th-T fluorescence, mean of three wells","Aβ42 aggregation time course, reading M135",3.416
same,"Th-T fluorescence, mean of three wells","Aβ42 aggregation time course, reading M136",3.414
same,"Th-T fluorescence, mean of three wells","Supplementary Fig. 47, reading M137",3.399
same,"Th-T fluorescence, mean of three wells","Supplementary Fig. 47, reading M138",3.412
same,"Th-T fluorescence, mean of three wells","Supplementary Fig. 47, reading M139",3.411
same,"Th-T fluorescence, mean of three wells","Supplementary Fig. 47, reading M140",3.433
same,"Th-T fluorescence, mean of three wells","Supplementary Fig. 47, reading M141",3.413
same,"Th-T fluorescence, mean of three wells","Supplementary Fig. 47, reading M142",3.437
same,"Th-T fluorescence, mean of three wells","Supplementary Fig. 47, reading M143",3.394
same,"Th-T fluorescence, mean of three wells","Supplementary Fig. 47, reading M144",3.432
same,"Th-T fluorescence, mean of three wells","Supplementary Fig. 47, reading M145",3.431
same,"Th-T fluorescence, mean of three wells","Supplementary Fig. 47 source data, measurement M37 of time course",3.548
same,"Th-T fluorescence, mean of three wells","Supplementary Fig. 47 source data, measurement M38 of time course",3.519
same,"Th-T fluorescence, mean of three wells","Supplementary Fig. 47 source data, measurement M39 of time course",3.507
same,"Th-T fluorescence, mean of three wells","Supplementary Fig. 47 source data, measurement M40 of time course",3.528
same,"Th-T fluorescence, mean of three wells","Supplementary Fig. 47 source data, measurement M41 of time course",3.5472
same,"Th-T fluorescence, mean of three wells","Supplementary Fig. 47 source data, measurement M42 of time course",3.534
same,"Th-T fluorescence, mean of three wells","Supplementary Fig. 47 source data, measurement M43 of time course",3.54
same,"Th-T fluorescence, mean of three wells","Supplementary Fig. 47 source data, measurement M44 of time course",3.555
same,"Th-T fluorescence, mean of three wells","Supplementary Fig. 47 source data, measurement M45 of time course",3.57
same,"Th-T fluorescence, mean of three wells","Supplementary Fig. 47 source data, measurement M46 of time course",3.557
same,"Th-T fluorescence, mean of three wells","Supplementary Fig. 47 source data, measurement M47 of time course",3.602
same,"Th-T fluorescence, mean of three wells","Supplementary Fig. 47 source data, measurement M48 of time course",3.575
same,"Th-T fluorescence, mean of three wells","Supplementary Fig. 47 source data, measurement M49 of time course",3.594
same,"Th-T fluorescence, mean of three wells","Supplementary Fig. 47 source data, measurement M50 of time course",3.623
same,"Th-T fluorescence, mean of three wells","Supplementary Fig. 47 source data, measurement M51 of time course",3.626
same,"Th-T fluorescence, mean of three wells","Supplementary Fig. 47 source data, measurement M52 of time course",3.602
same,"Th-T fluorescence, mean of three wells","Supplementary Fig. 47 source data, measurement M53 of time course",3.622
same,"Th-T fluorescence, mean of three wells","Supplementary Fig. 47 source data, measurement M54 of time course",3.589
same,"Th-T fluorescence, mean of three wells","Supplementary Fig. 47 source data, measurement M55 of time course",3.592
same,"Th-T fluorescence, mean of three wells","Supplementary Fig. 47 source data, measurement M56 of time course",3.6022
same,"Th-T assay plate reading, mean of three wells (Supplementary Fig. 47)",measurement M1,0.291
same,"Th-T assay plate reading, mean of three wells (Supplementary Fig. 47)",measurement M2,0.3102
same,"Th-T assay plate reading, mean of three wells (Supplementary Fig. 47)",measurement M3,0.3462
same,"Th-T assay plate reading, mean of three wells (Supplementary Fig. 47)",measurement M4,0.3847
same,"Th-T assay plate reading, mean of three wells (Supplementary Fig. 47)",measurement M5,0.4026
same,"Th-T assay plate reading, mean of three wells (Supplementary Fig. 47)",measurement M6,0.4778
same,"Th-T assay plate reading, mean of three wells (Supplementary Fig. 47)",measurement M7,0.5127
same,"Th-T assay plate reading, mean of three wells (Supplementary Fig. 47)",measurement M8,0.5767
same,"Th-T assay plate reading, mean of three wells (Supplementary Fig. 47)",measurement M9,0.6534
same,"Th-T assay plate reading, mean of three wells (Supplementary Fig. 47)",measurement M10,0.7067
same,"Th-T assay plate reading, mean of three wells (Supplementary Fig. 47)",measurement M11,0.7325
same,"Th-T assay plate reading, mean of three wells (Supplementary Fig. 47)",measurement M12,0.7635
same,"Th-T assay plate reading, mean of three wells (Supplementary Fig. 47)",measurement M13,0.7892
same,"Th-T assay plate reading, mean of three wells (Supplementary Fig. 47)",measurement M14,0.8105
same,"Th-T assay plate reading, mean of three wells (Supplementary Fig. 47)",measurement M15,0.8372
same,"Th-T assay plate reading, mean of three wells (Supplementary Fig. 47)",measurement M16,0.8682
same,"Th-T fluorescence, mean of three wells","reading M17, Supplementary Fig. 47 source data",0.9169
same,"Th-T fluorescence, mean of three wells","reading M18, Supplementary Fig. 47 source data",0.9995
same,"Th-T fluorescence, mean of three wells","reading M19, Supplementary Fig. 47 source data",1.135
same,"Th-T fluorescence, mean of three wells","reading M20, Supplementary Fig. 47 source data",1.37
same,"Th-T fluorescence, mean of three wells","reading M21, Supplementary Fig. 47 source data",1.709
same,"Th-T fluorescence, mean of three wells","reading M22, Supplementary Fig. 47 source data",2.121
same,"Th-T fluorescence, mean of three wells","reading M23, Supplementary Fig. 47 source data",2.518
same,"Th-T fluorescence, mean of three wells","reading M24, Supplementary Fig. 47 source data",2.859
same,"Th-T fluorescence, mean of three wells","reading M25, Supplementary Fig. 47 source data",3.1034
same,"Th-T fluorescence, mean of three wells","reading M26, Supplementary Fig. 47 source data",3.2675
same,"Th-T fluorescence, mean of three wells","reading M27, Supplementary Fig. 47 source data",3.339
same,"Th-T fluorescence, mean of three wells","reading M28, Supplementary Fig. 47 source data",3.364
same,"Th-T fluorescence, mean of three wells","reading M29, Supplementary Fig. 47 source data",3.378
same,"Th-T fluorescence, mean of three wells","reading M30, Supplementary Fig. 47 source data",3.446
same,"Th-T fluorescence, mean of three wells","reading M31, Supplementary Fig. 47 source data",3.431
same,"Th-T fluorescence, mean of three wells","reading M32, Supplementary Fig. 47 source data",3.47
same,"Th-T fluorescence, mean of three wells","reading M33, Supplementary Fig. 47 source data",3.448
same,"Th-T fluorescence, mean of three wells","reading M34, Supplementary Fig. 47 source data",3.489
same,"Th-T fluorescence, mean of three wells","reading M35, Supplementary Fig. 47 source data",3.5187
same,"Th-T fluorescence, mean of three wells","reading M36, Supplementary Fig. 47 source data",3.503
same,"Th-T fluorescence, mean of three wells","time course, reading M57",3.603
same,"Th-T fluorescence, mean of three wells","time course, reading M58",3.607
same,"Th-T fluorescence, mean of three wells","time course, reading M59",3.578
same,"Th-T fluorescence, mean of three wells","time course, reading M60",3.583
same,"Th-T fluorescence, mean of three wells","time course, reading M61",3.605
same,"Th-T fluorescence, mean of three wells","time course, reading M62",3.61
same,"Th-T fluorescence, mean of three wells","time course, reading M63",3.6015
same,"Th-T fluorescence, mean of three wells","time course, reading M64",3.57
same,"Th-T fluorescence, mean of three wells","time course, reading M65",3.572
same,"Th-T fluorescence, mean of three wells","time course, reading M66",3.5992
same,"Th-T fluorescence, mean of three wells","time course, reading M67",3.63
same,"Th-T fluorescence, mean of three wells","time-course reading M97, Supplementary Fig. 47 source data",3.5286
same,"Th-T fluorescence, mean of three wells","time-course reading M98, Supplementary Fig. 47 source data",3.531
same,"Th-T fluorescence, mean of three wells","time-course reading M99, Supplementary Fig. 47 source data",3.498
same,"Th-T fluorescence, mean of three wells","time-course reading M100, Supplementary Fig. 47 source data",3.513
same,"Th-T fluorescence, mean of three wells","time-course reading M101, Supplementary Fig. 47 source data",3.502
same,"Th-T fluorescence, mean of three wells","time-course reading M102, Supplementary Fig. 47 source data",3.488
same,"Th-T fluorescence, mean of three wells","time-course reading M103, Supplementary Fig. 47 source data",3.486
same,"Th-T fluorescence, mean of three wells","time-course reading M104, Supplementary Fig. 47 source data",3.491
same,"Th-T fluorescence, mean of three wells","time-course reading M105, Supplementary Fig. 47 source data",3.477
same,"Th-T fluorescence, mean of three wells","time-course reading M106, Supplementary Fig. 47 source data",3.476
same,"Th-T fluorescence, mean of three wells","time-course reading M107, Supplementary Fig. 47 source data",3.493
same,"Th-T fluorescence, mean of three wells","time-course reading M108, Supplementary Fig. 47 source data",3.51
same,"Th-T fluorescence, mean of three wells","time-course reading M109, Supplementary Fig. 47 source data",3.4898
same,"Th-T fluorescence, mean of three wells","time-course reading M110, Supplementary Fig. 47 source data",3.516
same,"Th-T fluorescence, mean of three wells","time-course reading M111, Supplementary Fig. 47 source data",3.513
same,"Th-T fluorescence, mean of three wells","time-course reading M112, Supplementary Fig. 47 source data",3.526
same,"Th-T fluorescence, mean of three wells","time-course reading M113, Supplementary Fig. 47 source data",3.459
same,"Th-T fluorescence, mean of three wells","time-course reading M114, Supplementary Fig. 47 source data",3.543
same,"Th-T fluorescence, mean of three wells","time-course reading M115, Supplementary Fig. 47 source data",3.464
same,"Th-T fluorescence, mean of three wells","time-course reading M116, Supplementary Fig. 47 source data",3.458
